Results published in patent US9358266B2, “Treatment of sepsis using complement inhibitors” (The Trustees of the University of Pennsylvania, priority 2010, dated 2016).

How the values were obtained:
baboon complement = details: relative to human complement; Sahu et al. 2003; cited from earlier work
human complement = details: relative to baboon complement; Sahu et al. 2003; cited from earlier work
complement [1] = assay: Complement activation in LD100 model of E. coli sepsis in baboons; type: in vivo, Papio cyanocephalus; details: for % Complement Activation at T+120 min: untreated avg. 2.8
Experimental: (§1) Reagents, Compstatin analog and live E. coli organisms were obtained or prepared as described in Example 1. Papio cyanocephalus baboons were infused with 2-3×10^10 CFU/kg live E. coli (LD100 dose) as described (Taylor F B, Jr., et al., 2000, Blood 95: 1680-1686). The time point at which the infusion was started was indicated as T-0, a time point of n minutes or hours thereafter referred to as T+n minutes (or hours). The Compstatin analog was administered at three different concentrations as an intravenous bolus followed by continuous infusion.
(§2) Complement activity was measured in accordance with known methods. Survival time was also recorded.

[2] = tested on: baboons infused with live E. coli (LD100 dose); assay: Survival time in LD100 model of E. coli sepsis in baboons; type: in vivo, Papio cyanocephalus; details: for Survival Time: no antibiotics
Experimental: as §1, §2

primate C3 = primate C3 (Homo sapiens, UniProt P01024); details: Janssen et al. 2007; cited from earlier work
[3] = tested on: baboons infused with live E. coli (LD50 dose); assay: Plasma cytokines multiplex assay, baboon LD50 E. coli sepsis; type: in vivo, Papio cyanocephalus
[4] = tested on: baboons infused with live E. coli (LD50 dose); assay: Histopathological analysis of organs, baboon LD50 E. coli sepsis; type: in vivo, Papio cyanocephalus
complement [5] = assay: Complement activation products and complement activity in plasma, baboon LD50 E. coli sepsis; type: in vivo, Papio cyanocephalus
[6] = tested on: baboons infused with live E. coli (LD50 dose); assay: Blood pressure and organ function biochemical tests, baboon LD50 E. coli sepsis; type: in vivo, Papio cyanocephalus
[7] = tested on: baboons infused with live E. coli (LD50 dose); assay: Immunofluorescence of complement pathway proteins in kidney, baboon LD50 E. coli sepsis; type: in vivo, Papio cyanocephalus
[8] = tested on: baboons infused with live E. coli (LD50 dose); assay: Coagulation tests (fibrinogen, FDP, APTT), baboon LD50 E. coli sepsis; type: in vivo, Papio cyanocephalus
[9] = tested on: baboons infused with live E. coli (LD50 dose); assay: Hematological parameters and cell accumulation in organs, baboon LD50 E. coli sepsis; type: in vivo, Papio cyanocephalus
[10] = tested on: baboons infused with live E. coli (LD50 dose); assay: Immunofluorescence and qRT-PCR of hemostatic proteins (PAI-1, TF, TFPI, TM) in lung and liver, baboon LD50 E. coli sepsis; type: in vivo, Papio cyanocephalus; details: for PAI1 mRNA in liver: vs non-challenged controls (1±0.6), E. coli alone 22-fold (±9)
[11] = both preventive and rescue therapy, data not shown
[12] = histology at 24 hrs vs non-treated group
[13] = septic baboons, infusion with Compstatin analog
[14] = immunofluorescence MFI of kidney cryosections, T+24, T0 and T+5 treatment, FIG. 2
[15] = kidney immunofluorescence, FIG. 2
[16] = lung cryosections immunofluorescence, both early and late treatments, FIG. 5A

Sequence of primate C3 (P01024 23-1663): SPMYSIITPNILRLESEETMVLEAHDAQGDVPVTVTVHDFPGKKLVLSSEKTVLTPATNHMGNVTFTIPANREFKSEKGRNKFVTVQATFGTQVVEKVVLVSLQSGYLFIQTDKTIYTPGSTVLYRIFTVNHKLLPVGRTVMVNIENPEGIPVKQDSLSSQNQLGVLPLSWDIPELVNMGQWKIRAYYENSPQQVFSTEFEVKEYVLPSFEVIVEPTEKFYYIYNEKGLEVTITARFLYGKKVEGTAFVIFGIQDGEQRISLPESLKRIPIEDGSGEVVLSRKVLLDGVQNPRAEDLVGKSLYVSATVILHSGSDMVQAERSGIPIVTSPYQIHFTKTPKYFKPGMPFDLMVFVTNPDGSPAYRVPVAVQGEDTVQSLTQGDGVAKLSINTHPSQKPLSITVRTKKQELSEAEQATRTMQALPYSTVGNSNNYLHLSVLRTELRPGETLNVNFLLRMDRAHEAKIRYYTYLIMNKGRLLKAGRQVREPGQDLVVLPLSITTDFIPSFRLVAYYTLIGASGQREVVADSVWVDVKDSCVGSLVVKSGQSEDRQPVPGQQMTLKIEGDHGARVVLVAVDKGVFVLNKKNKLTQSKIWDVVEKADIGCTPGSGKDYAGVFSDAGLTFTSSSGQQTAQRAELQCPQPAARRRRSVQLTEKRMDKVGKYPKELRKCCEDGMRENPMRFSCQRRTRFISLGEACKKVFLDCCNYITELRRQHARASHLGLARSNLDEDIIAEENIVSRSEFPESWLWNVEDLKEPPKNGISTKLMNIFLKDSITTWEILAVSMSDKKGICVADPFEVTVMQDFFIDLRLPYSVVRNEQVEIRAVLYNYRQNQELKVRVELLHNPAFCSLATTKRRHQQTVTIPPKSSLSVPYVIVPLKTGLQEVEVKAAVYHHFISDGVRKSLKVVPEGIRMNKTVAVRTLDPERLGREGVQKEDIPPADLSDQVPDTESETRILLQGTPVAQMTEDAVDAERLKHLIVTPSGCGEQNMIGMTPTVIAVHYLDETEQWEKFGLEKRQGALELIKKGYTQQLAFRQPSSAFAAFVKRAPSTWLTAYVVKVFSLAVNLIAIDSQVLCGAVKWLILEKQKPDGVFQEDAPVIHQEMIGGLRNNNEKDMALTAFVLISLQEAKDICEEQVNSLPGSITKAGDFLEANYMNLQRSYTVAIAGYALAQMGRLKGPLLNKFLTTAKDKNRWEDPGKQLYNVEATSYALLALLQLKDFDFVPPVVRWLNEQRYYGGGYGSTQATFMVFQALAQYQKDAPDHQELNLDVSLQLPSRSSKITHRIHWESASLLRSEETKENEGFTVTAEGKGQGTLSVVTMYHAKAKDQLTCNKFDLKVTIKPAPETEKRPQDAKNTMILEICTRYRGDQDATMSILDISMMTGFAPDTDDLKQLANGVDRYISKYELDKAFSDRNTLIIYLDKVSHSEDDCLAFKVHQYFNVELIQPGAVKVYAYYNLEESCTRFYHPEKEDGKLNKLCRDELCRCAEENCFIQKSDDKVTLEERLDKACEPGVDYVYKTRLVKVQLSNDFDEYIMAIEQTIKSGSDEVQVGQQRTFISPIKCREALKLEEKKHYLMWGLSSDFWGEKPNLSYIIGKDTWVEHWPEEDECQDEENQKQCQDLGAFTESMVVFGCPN

CC[C@H](C)[C@H](N)C(=O)N[C@H]1CSSC[C@@H](C(=O)N[C@H](C(N)=O)[C@@H](C)O)NC(=O)[C@H](CCCN=C(N)N)NC(=O)[C@H](Cc2cnc[nH]2)NC(=O)[C@H](Cc2cnc[nH]2)NC(=O)CNC(=O)[C@H](Cc2c[nH]c3ccccc23)NC(=O)[C@H](CC(=O)O)NC(=O)[C@H](CCC(N)=O)NC(=O)[C@H](C(C)C)NC(=O)[C@H](C(C)C)NC1=O [Compstatin, Ile-Cys-Val-Val-Gln-Asp-Trp-Gly-His-His-Arg-Cys-Thr]
inhibition of baboon complement (baboon complement): approximately equimolar concentrations | inhibition of human complement (human complement): approximately equimolar concentrations | % Complement Activation at T+120 min (complement [1]; animal 1, bolus 0.33 mg/kg T−0, 1.74 mg/kg T+60, infusion 20 μg/min/kg (8 hrs), total 58 mg): 0.6% | % Complement Activation at T+120 min (complement [1]; animal 2, bolus 1.0 mg/kg T−0, 2.3 mg/kg T+60, infusion 20 μg/min/kg (8 hrs), total 78 mg): 0.5% | % Complement Activation at T+120 min (complement [1]; animal 3, bolus 10 mg/kg T−0, infusion 200 μg/min/kg (8 hrs), total 760 mg): 0.0% | inhibition of complement activation by T+120 minutes (complement [1]; animal receiving the highest concentration): complete inhibition | inhibition of complement activation by T+120 minutes (complement [1]; animals receiving the lesser concentrations): substantial inhibition | Survival Time ([2]; animal 1, bolus 0.33 mg/kg T−0, 1.74 mg/kg T+60, infusion 20 μg/min/kg (8 hrs)): 31.5 h | Survival Time ([2]; animal 2, bolus 1.0 mg/kg T−0, 2.3 mg/kg T+60, infusion 20 μg/min/kg (8 hrs)): 7.0 h | Survival Time ([2]; animal 3, bolus 10 mg/kg T−0, infusion 200 μg/min/kg (8 hrs)): 11.5 h | survival of treated animals ([2]; no antibiotic treatment): died within a few hours | binding to primate C3 (primate C3): specifically binds

Ac-I[CVW(Me)QDWGAHRCT]I-NH2 [Compstatin analog]
effect on plasma cytokines ([3]; 23-plex assay, nine increased by sepsis, except eotaxin and IL-6, data not shown): marginal | plasma IL-6 [3, 11]: reduction | plasma eotaxin [3, 11]: reduction | histopathologic changes of the tissues (graded 0 to 4) ([4]; T+24, two treated groups (T0, T+5) vs E coli challenge group, P<0.001, with the exception of the lung congestion, FIG. 7): significantly less severe | cell death in adrenals and spleen [4, 12]: decreased cell death | hepatocyte vacuolization and liver degeneration [4, 12]: lack of hepatocyte vacuolization and liver degeneration | leukocyte infiltration in the lung, liver adrenals and spleen [4, 12]: less leukocyte infiltration | thrombosis or capillary leak in the lungs [4, 12]: no obvious signs of thrombosis or capillary leak | tubular necrosis and glomerular thrombosis in the kidneys [4, 12]: no or less tubular necrosis and glomerular thrombosis | organ protection by histological analysis ([4]; organs collected after 24 hrs): substantial organ-protection | plasma complement activity (complement [5]; 10 mg/kg iv bolus + 60 μg/kg/min, both preventive (T0 to T+8) and rescue (T+5 to T+11) treatments, FIG. 1A): inhibited | plasma TCC levels (complement [5]; 10 mg/kg iv bolus + 60 μg/kg/min, both preventive (T0 to T+8) and rescue (T+5 to T+11) treatments, FIG. 1B): inhibited | late rise of plasma TCC levels (complement [5]; rescue regimen (T+5 to T+11) compared with prevention group, FIG. 1B): averting the late rise observed in the prevention group | C3a generation (complement [5]; [13]): rapidly inhibited | C3b generation (complement [5]; [13]): rapidly inhibited | creatinine, magnitude of the response ([6]; T+8 and T+24, two treatment groups vs non treated septic animals, FIG. 6B): lower | LDH, magnitude of the response ([6]; T+8 and T+24, two treatment groups vs non treated septic animals, FIG. 6C): lower | ALT, magnitude of the response ([6]; T+8 and T+24, two treatment groups vs non treated septic animals, FIG. 6D): lower | AST, magnitude of the response ([6]; T+8 and T+24, two treatment groups vs non treated septic animals, FIG. 6E): lower | decrease of mean systemic arterial blood pressure ([6]; early treatment (T0 to T+8), FIG. 6A): virtually abolished this decrease | mean systemic arterial blood pressure ([6]; treatment during the second stage (T+5 to T+11), compared with septic untreated baboons, FIG. 6A): higher recovery of the blood pressure in the late phase | C3b deposition in the kidney [7, 14]: significantly inhibited | C5b9 deposition in the kidney [7, 14]: significantly inhibited | MBL deposition in the kidney [7, 14]: significantly inhibited | shedding of CD55 from the endothelial surface [7, 15]: protected against shedding | shedding of CD59 from the endothelial surface [7, 15]: protected against shedding | mRNA expression of CD55 and CD59 ([7]; qRT-PCR, data not shown): without significantly affecting | fibrinogen levels ([8]; after 24 hours, compared with non-treated animals, FIG. 4A): fully recovered and overshot the initial values | fibrinogen consumption ([8]; first eight hours post-challenge, FIG. 4A): reduced fibrinogen consumption | FDP levels ([8]; treated vs non-treated animals, FIG. 4B): significantly lower | APTT ([8]; treated vs non-treated animals, FIG. 4C): slightly decreased | accumulation of macrophages in the lung ([9]; FIG. 3C): lower accumulation | accumulation of platelets in the lung and on the surface of the large vessels ([9]; FIG. 3D-E): lower accumulation | WBC count in blood ([9]; both prevention and rescue regimens, FIG. 3A): faster WBC recovery | platelet count in blood (platelet consumption) ([9]; both prevention and rescue regimens, FIG. 3B): lower plasma platelet consumption | number of neutrophils ([9]; immunostaining for cell specific markers, not shown): without significant changes | CD68 positive macrophages ([9]; immunostaining, lung, FIG. 3C): significant decrease | C5b9 deposition on aggregated platelets ([9]; lung and large vessels, FIG. 3D-E): decreased C5b9 deposition | E. coli induced PAI-1 staining in lung [10, 16]: decreased | E. coli induced TF staining in lung [10, 16]: decreased | TFPI in endothelial cells of lung [10, 16]: protected against sepsis-induced downregulation | TM in endothelial cells of lung [10, 16]: protected against sepsis-induced downregulation | TF expression in the lung ([10]; treated animals): decrease | monocyte/macrophages infiltration in the lung ([10]; treated animals): decrease | PAI1 mRNA in liver ([10]; treated at T0, mean (±SEM 8)): 8 fold | PAI1 mRNA in liver ([10]; treated at T+5, mean (±SEM 0.8)): 4 fold | PAI-1 expression in endothelial cells and macrophages ([10]; treated versus non-treated septic baboons): down-regulated
